Measurements taken from US6572839B2, “Sensitizer for tumor treatment” (Hitachi, Ltd., priority 2000, dated 2003).
Values after ≈ are worked out from the molar mass of the structure shown. Like-named read-outs stand apart in the source and are kept apart here.

Key:
[1] = Solubility measurement of RB and lipophilic derivatives of RB in PBS and 1-octanol; assay type: physicochemical; settings: for solubility: thermodynamic from solid
Protocol: The sonochemical sensitizers of the invention, namely RB—COOH—Cn species (n being the number of carbon atoms in the straight alkyl group) were examined for their solubility in an aqueous solution and in an organic solvent. The aqueous solution used was a phosphate buffer solution (hereinafter, PBS) with a pH of 7.4 and the organic solvent used was 1-octanol.
First, saturated solutions of each RB—COOH—Cn in PBS and in 1-octanol were prepared at 25° C. and each solution was measured for its ultraviolet-visible absorption spectrum. Based on the molar absorptivity determined beforehand by measuring the ultraviolet-visible absorption spectrum of a solution having a known concentration, the agent concentration in the saturated solution was estimated.
For comparison, the starting material RB and two kinds of RB derivative, for which an attempt was made to increase the lipophilicity by a method other than that of the invention, namely rose bengal alkyl esters (hereinafter, RB—Cn, n being the number of carbon atoms in the alkyl group) and rose bengal fatty acid esters (hereinafter, RB—Cn—COOH, n being the number of carbon atoms in the methylene chain), were also subjected to solubility measurement.
In the solubility measurement, the respective derivatives having an equal number of carbon atoms in the alkyl group (n=7) were used.

[2] = Evaluation for contrast-enhancing effect (ultrasound imaging); assay type: in vivo; settings: dog, 5 mL of 0.1 mmol/L solution intravenously, 5 MHz linear probe, mode B
Protocol: Using an ultrasound diagnostic system equipped with a linear probe with a central frequency of 5 MHz, 5 mL of the solution of RB—COOH—C7 obtained in Test Example 10 was intravenously administered to a dog (weighing 12 kg, 2 years old) while ultrasonically scanning the hepatic region of the dog with mode B. Immediately thereafter, 5 mL of physiological saline was administered. After administration, the hepatic artery and aorta were imaged and the imaging lasted for about 30 seconds.

[3] = Evaluation of the acoustic cavitation promoting effect (subharmonic signal upon ultrasound irradiation); settings: 0.5 MHz and 1 MHz; for subharmonic generation: 0.1 mmol/L in PBS (pH 7.4), acoustic intensity 5 W/cm^2, 1 minute
Protocol: A 0.1 mmol/L solution of RB—Cn in PBS (pH 7.4, containing 1% DMF) was sealed in a polyethylene bag (30×25 mm, 0.03 mm thick) and irradiated with ultrasonic waves of 0.5 MHz and 1 MHZ simultaneously under conditions of an acoustic intensity of 5 or 10 W/cm^2 and an exposure time of 1 minute, using an experimental apparatus having the constitution shown in FIG. 4.
In FIG. 4, 10 indicates degassed water, 11—a water tank, 12—a polyethylene bag, 13—a sample solution, 14-1 and 14-2 each—a holdfast, 15—a hanger, 16—a hydrophone, 17—a supporter, 18—an ultrasound transducer, 19—a supporter, 20—a signal processor, 21—an amplifier, 22—a spectrum analyzer, 23—an amplifier, and 24—a wave generator.
The acoustic signals at the subharmonic (250 kHz) characteristic to acoustic cavitation were measured at one-second intervals using a focusing type hydrophone, the root mean square of the signal amplitudes during the irradiation period was calculated and this was used as an indication of acoustic cavitation.
For comparison, a 0.1 mmol/L solution of RB in PBS (pH 7.4) was also measured for subharmonic signals. […] For each of RB and the RB—Cn species containing 3, 6 or 18 carbon atoms in the alkyl group (RB—C3, RB—C6 and RB—C18), the relation between acoustic intensity and subharmonic intensity is shown in FIG. 6.
Using a 0.1 mmol/L solution of RB—COOH—Cn in PBS (pH 7.4), the acoustic cavitation promoting effect was evaluated in the same manner as in Test Example 5.
Using a 0.1 mmol/L solution of xanthene dye sensitizer—COOH—Cn in PBS (pH 7.4), the acoustic cavitation promoting effect was evaluated in the same manner as in Test Example 5.

[4] = system: murine experimental tumor Colone 26; assay: Evaluation of the accumulation of RB—COOH—Cn in tumor tissues (fluorescence intensity ratio); assay type: in vivo; settings: tumor bearing CDF1 mice, intravenous, 10 mg/kg, until 120 minutes after administration, FIG. 3
Protocol: (§1) Tumor bearing mice were intravenously administered with RB or RB—Cn and, after the lapse of a predetermined period, tumor tissues were excised. The fluorescence spectrum of the agent extracted from the tumor tissues was measured and the concentration of the agent was estimated from the fluorescence intensity to thereby evaluate the accumulability in tumor tissues. Mice subjected to the test were 5-week male CDF1 mice one to two weeks after subcutaneous implantation of small pieces (e.g. 1 mm^3 pieces) of the murine experimental tumor Colone 26. The dose of the agent was 10 mg/kg and methanol or chloroform was used for the extraction.
Tumor bearing mice were intravenously administered with RB or RB—COOH—Cn and, after the lapse of a predetermined period, tumor tissues were excised. The fluorescence intensity of the tumor tissues was measured and the accumulability in tumor tissues was evaluated based on the ratio of that intensity and the fluorescence intensity of an internal standard (fluorescence intensity ratio). The mice used in the test and the dose of the agent were the same as in Test Example 3. As an example of the results, the relation between the time from agent administration to mice to tumor tissue excision and the fluorescence intensity ratio is shown in FIG. 3 for each of RB and RB—COOH—Cn species containing 2, 3, 7 or 15 carbon atoms in the alkyl group (RB—COOH—C2, RB—COOH—C3, RB—COOH—C7 and RB—COOH—C15).

[5] = Evaluation of the photosensitivity (photo-oxidation reaction of iodide); settings: light of 365 nm, DMF solution, FIG. 9 / FIG. 10
Protocol: The photo-oxidation reaction of iodide as represented by Equation 4 was carried out in the presence of RB—Cn and the photosensitivity of the compound was evaluated.
A mixed solution composed of 2 mL of a 0.1 mol/L solution of potassium iodide in DMF and 1 mL of a 1 mmol/L solution of RB—Cn in DMF was placed in a glass dish (48 mm in diameter) and irradiated with light of 365 nm for a predetermined period. The absorbance, at 350 nm, of the sample was measured before and after exposure. 350 nm is the absorption maximum wavelength of I3^—. Based on the absorbance (A), the concentration of I3^— was calculated using Equation 5.
The procedure of Test Example 8 was followed in the presence of RB—COOH—Cn.

[6] = Evaluation for bubble stability; assay type: physicochemical; settings: 0.1 mmol/L in PBS (pH 7.4), 4 mL shaken 5 minutes
Protocol: Using a 0.1 mmol/L solution of RB—COOH—C7 in PBS (pH 7.4), the stability of bubbles was measured. 4 mL of the solution of RB—COOH—C7 was placed in a test tube having a length of […] and shaken on a shaker for 5 minutes and then the time until the disappearance of the bubbles was measured. PBS was used as a control.

[7] = system: murine experimental tumor Colone 26; assay: Evaluation of the accumulation of RB—Cn in tumor tissues (agent extracted, fluorescence); assay type: in vivo; settings: tumor bearing CDF1 mice, intravenous, 10 mg/kg, until 120 minutes after administration, FIG. 2
Protocol: as §1

[8] = Preparation of RB solution and RB lipophilic derivative solutions for administration in vivo; assay type: physicochemical; settings: target 10 mg/mL (RB—Cn 1 mg/mL), final pH about 7.4
Protocol: A solution each of RB (Formula 9), RB—Cn—COOH (Formula 11) and RB—COOH—Cn (Formula 12) with a concentration of 10 mg/mL and a solution of RB—Cn (Formula 10) with a concentration of 1 mg/mL were prepared.
RB: 50 mg of RB was dissolved in PBS (pH 7.4) and the whole volume was made 5 mL.
RB—Cn: 4 mg of RB—Cn was dissolved in 0.4 mL of DMSO. Then, 0.4 mL of ethanol, 0.3 mL of 0.1 N NaOH aqueous solution and 1.0 mL of PBS (pH 7.4) were added and, further, 0.1 N hydrochloric acid was added to adjust the pH to about 7.4 and the whole volume was made 4 mL by further adding PBS (pH 7.4). The DMSO accounted for 10% of the whole solution.
RB—C7—COOH: 30 mg of RB—C7—COOH was dissolved in 1.2 mL of 0.1 N NaOH aqueous solution, 0.1 N hydrochloric acid was added to adjust the pH to about 7.4 and the whole volume was made 3 mL by further adding PBS (pH 7.4).
RB—COOH—Cn: n=2 to 10:30 mg of each RB—COOH—Cn was dissolved in 1.2 mL of 0.1 N NaOH aqueous solution, 0.1 N hydrochloric acid was added to adjust the pH to about 7.4 and the whole volume was made 3 mL by further adding PBS (pH 7.4). […].
n=11 to 20:30 mg of each RB—COOH—Cn was dissolved in 0.6 mL of DMF. Then, 1.2 mL of 0.1 N NaOH aqueous solution was added, 0.1 N hydrochloric acid was added to adjust the pH to about 7.4 and the whole volume was made 3 mL by further adding PBS (pH 7.4).

Compound	subharmonic generation [3]	occurrence/concentration in tumor tissues (fluorescence intensity ratio to internal standard) [4]	relation between light exposure time and yield in photo-oxidation of iodide [5]	further results
O=C(O)CCCCCCCOC(=O)c1c(Cl)c(Cl)c(Cl)c(Cl)c1-c1c2cc(I)c(=O)c(I)c-2oc2c(I)c(O)c(I)cc12 [RB—COOH—C7, Rose bengal-α-carboxyheptyl ester]	observed	higher than that of RB	almost proportional to the exposure time	solubility in the organic solvent relative to that of RB—C7—COOH ([1]; 1-octanol): about 5 times; solubility in 1-octanol (organic solvent) relative to the solubility of RB ([1]; 25° C.): 120 times; solubility in the aqueous solution relative to that of RB—C7 ([1]; PBS (pH 7.4), 25° C.): 83 times; solubility in PBS (pH 7.4) ([1]; saturated solution at 25° C., aqueous solution): 0.83 mmol/l; solubility in 1-octanol ([1]; saturated solution at 25° C., organic solvent): 12 mM (≈ 13.4 mg/mL); duration of imaging of hepatic artery and aorta [2]: about 30 seconds; time bubbles remain after shaking [6]: about 120 seconds
O=C(O)CCCCCCCOC(=O)c1c(Cl)c(Cl)c(Cl)c(Cl)c1-c1c2cc(Br)c(=O)c(Br)c-2oc2c(Br)c(O)c(Br)cc12 [PB—COOH—C7, Phloxine B-α-carboxyheptyl ester]	observed	–	–	–
CCCCCCCCCCCCCCCCCCOC(=O)c1c(Cl)c(Cl)c(Cl)c(Cl)c1-c1c2cc(I)c(=O)c(I)c-2oc2c(I)c(O)c(I)cc12 [RB—C18]	–	–	almost proportional to the exposure time	agent concentration in tumor tissues [7]: higher as compared with RB; subharmonic formation ([3]; 0.1 mmol/L in PBS (pH 7.4, 1% DMF), ultrasound intensity 10 W/cm^2, 1 minute): no subharmonic formation was observed
Rose bengal-α-carboxypentadecyl ester [RB—COOH—C15]	observed	higher than that of RB	almost proportional to the exposure time	–
O=C([O-])c1c(Cl)c(Cl)c(Cl)c(Cl)c1-c1c2cc(I)c(=O)c(I)c-2oc2c(I)c([O-])c(I)cc12.[Na+].[Na+] [RB, rose bengal sodium salt]	observed	hardly observed	almost proportional to the exposure time	solubility ([1]; 1-octanol, organic solvent or mixture, saturated solution at 25° C., organic solvent, read-out: solubility in 1-octanol): < 0.1 mM; solubility ([1]; phosphate buffer solution (PBS), pH 7.4, aqueous buffer, saturated solution at 25° C., aqueous solution, read-out: solubility in PBS (pH 7.4)): 220 mM; solubility in 1-octanol ([1]; saturated solution at 25° C., organic solvent, sodium salt): <0.1 mM; agent concentration in tumor tissues [7]: hardly observed; dissolution behaviour when preparing solution for administration in vivo [8]: soluble as it was in PBS (pH 7.4)
CCCCCCC(OC(=O)c1ccccc1-c1c2cc(I)c(=O)c(I)c-2oc2c(I)c(O)c(I)cc12)C(=O)O (stereo not drawn) [EB—COOH—C7, Erythrosine B-α-carboxyheptyl ester]	observed	–	–	–
O=C([O-])c1c(Cl)c(Cl)c(Cl)c(Cl)c1-c1c2cc(Br)c(=O)c(Br)c-2oc2c(Br)c([O-])c(Br)cc12.[Na+].[Na+] [PB, phloxine B sodium salt]	observed	–	–	–
CCCCCCCCCCCCCCOC(=O)c1c(Cl)c(Cl)c(Cl)c(Cl)c1-c1c2cc(I)c(=O)c(I)c-2oc2c(I)c(O)c(I)cc12 [RB—Cl4]	–	–	almost proportional to the exposure time	–
erythrosine B sodium salt [EB]	observed	–	–	–
Rose bengal-α-carboxyethyl ester [RB—COOH—C2]	–	hardly observed	almost proportional to the exposure time	–
CCCCCCCCCCOC(=O)c1c(Cl)c(Cl)c(Cl)c(Cl)c1-c1c2cc(I)c(=O)c(I)c-2oc2c(I)c(O)c(I)cc12 [RB—CLO]	–	–	almost proportional to the exposure time	–
CCCCCCOC(=O)c1c(Cl)c(Cl)c(Cl)c(Cl)c1-c1c2cc(I)c(=O)c(I)c-2oc2c(I)c(O)c(I)cc12 [RB—C6]	observed	–	almost proportional to the exposure time	agent concentration in tumor tissues [7]: higher as compared with RB
